According to patent US10670605B2, “Cysteine reactive probes and uses thereof” (The Scripps Research Institute, priority 2015, dated 2020):
Values belong to the molecule of their own block, whether it stands above or below them.

Key:
USP34 C741 (Q70CQ2) = USP34 C741 (Q70CQ2) (Homo sapiens, UniProt Q70CQ2); assay: Competitive isoTOP-ABPP, cell lysates; format: binding
POU2F2 C346 (P09086) = molecular target: T1, POU2F2 C346 (P09086) (Homo sapiens, UniProt P09086); assay: Competitive isoTOP-ABPP, cell lysates; format: binding; conditions: for R value (DMSO/fragment) / isoTOP-ABPP ratio, P09086_C346: 500 μM
T1 sequence (P09086 1-479): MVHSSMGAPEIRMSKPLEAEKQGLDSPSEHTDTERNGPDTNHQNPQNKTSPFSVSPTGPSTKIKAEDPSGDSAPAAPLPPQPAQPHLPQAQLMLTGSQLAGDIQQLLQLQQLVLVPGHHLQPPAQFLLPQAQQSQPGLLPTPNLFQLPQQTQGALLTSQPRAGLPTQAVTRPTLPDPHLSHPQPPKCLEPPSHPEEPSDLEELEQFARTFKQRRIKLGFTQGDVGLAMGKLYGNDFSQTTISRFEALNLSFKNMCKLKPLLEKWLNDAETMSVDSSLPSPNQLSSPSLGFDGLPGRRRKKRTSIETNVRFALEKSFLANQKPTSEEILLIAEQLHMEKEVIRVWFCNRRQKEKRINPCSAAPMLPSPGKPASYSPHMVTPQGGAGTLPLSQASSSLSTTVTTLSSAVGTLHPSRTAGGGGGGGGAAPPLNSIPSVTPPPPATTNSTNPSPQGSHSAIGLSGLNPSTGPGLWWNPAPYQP

[1] = molecular target: T2, cysteines in MDA-MB-231 and Ramos cells (Homo sapiens, UniProt Q15013); assay: Competitive isoTOP-ABPP in situ (fragment-treated cells); format: cell-based
T2 sequence (Q15013 1-274): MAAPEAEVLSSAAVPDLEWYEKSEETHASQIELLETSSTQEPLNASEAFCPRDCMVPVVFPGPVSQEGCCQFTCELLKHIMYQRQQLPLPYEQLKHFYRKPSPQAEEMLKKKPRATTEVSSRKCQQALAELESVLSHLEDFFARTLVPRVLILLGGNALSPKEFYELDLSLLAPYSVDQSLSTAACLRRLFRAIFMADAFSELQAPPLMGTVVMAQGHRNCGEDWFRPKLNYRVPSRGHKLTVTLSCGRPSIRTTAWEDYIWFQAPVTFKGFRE

UBA7 C599 (P41226) = molecular target: T3, UBA7 C599 (P41226) (Homo sapiens, UniProt P41226); assay: Competitive isoTOP-ABPP, cell lysates; format: binding
T3 sequence (P41226 1-1012): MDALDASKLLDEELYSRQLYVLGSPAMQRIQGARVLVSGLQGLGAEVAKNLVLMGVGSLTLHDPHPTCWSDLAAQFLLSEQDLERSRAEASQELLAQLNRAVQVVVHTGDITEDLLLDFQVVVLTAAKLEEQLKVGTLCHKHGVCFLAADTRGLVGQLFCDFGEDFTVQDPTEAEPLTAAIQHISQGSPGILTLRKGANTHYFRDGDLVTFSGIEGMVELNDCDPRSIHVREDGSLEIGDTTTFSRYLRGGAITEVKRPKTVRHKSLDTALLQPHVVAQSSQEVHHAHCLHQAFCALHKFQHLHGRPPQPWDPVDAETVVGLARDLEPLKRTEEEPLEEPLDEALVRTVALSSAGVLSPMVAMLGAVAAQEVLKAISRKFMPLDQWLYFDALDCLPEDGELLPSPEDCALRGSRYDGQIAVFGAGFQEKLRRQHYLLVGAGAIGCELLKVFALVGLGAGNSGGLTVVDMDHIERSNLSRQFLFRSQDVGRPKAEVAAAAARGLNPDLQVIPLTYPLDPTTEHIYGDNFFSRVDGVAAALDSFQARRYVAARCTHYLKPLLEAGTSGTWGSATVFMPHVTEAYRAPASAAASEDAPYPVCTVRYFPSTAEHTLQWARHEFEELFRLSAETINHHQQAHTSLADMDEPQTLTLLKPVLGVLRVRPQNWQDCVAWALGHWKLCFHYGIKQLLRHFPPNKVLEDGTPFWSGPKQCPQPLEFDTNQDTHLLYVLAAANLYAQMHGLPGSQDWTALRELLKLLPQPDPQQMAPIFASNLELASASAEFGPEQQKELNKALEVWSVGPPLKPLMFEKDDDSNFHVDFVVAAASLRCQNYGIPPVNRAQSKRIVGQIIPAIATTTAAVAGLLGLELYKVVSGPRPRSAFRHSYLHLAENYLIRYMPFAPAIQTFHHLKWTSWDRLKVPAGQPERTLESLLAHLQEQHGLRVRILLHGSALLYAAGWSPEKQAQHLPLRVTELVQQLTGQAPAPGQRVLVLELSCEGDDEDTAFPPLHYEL

Chain of USP34 C741 (Q70CQ2) (Q70CQ2 whole entry, the tested form may be a part): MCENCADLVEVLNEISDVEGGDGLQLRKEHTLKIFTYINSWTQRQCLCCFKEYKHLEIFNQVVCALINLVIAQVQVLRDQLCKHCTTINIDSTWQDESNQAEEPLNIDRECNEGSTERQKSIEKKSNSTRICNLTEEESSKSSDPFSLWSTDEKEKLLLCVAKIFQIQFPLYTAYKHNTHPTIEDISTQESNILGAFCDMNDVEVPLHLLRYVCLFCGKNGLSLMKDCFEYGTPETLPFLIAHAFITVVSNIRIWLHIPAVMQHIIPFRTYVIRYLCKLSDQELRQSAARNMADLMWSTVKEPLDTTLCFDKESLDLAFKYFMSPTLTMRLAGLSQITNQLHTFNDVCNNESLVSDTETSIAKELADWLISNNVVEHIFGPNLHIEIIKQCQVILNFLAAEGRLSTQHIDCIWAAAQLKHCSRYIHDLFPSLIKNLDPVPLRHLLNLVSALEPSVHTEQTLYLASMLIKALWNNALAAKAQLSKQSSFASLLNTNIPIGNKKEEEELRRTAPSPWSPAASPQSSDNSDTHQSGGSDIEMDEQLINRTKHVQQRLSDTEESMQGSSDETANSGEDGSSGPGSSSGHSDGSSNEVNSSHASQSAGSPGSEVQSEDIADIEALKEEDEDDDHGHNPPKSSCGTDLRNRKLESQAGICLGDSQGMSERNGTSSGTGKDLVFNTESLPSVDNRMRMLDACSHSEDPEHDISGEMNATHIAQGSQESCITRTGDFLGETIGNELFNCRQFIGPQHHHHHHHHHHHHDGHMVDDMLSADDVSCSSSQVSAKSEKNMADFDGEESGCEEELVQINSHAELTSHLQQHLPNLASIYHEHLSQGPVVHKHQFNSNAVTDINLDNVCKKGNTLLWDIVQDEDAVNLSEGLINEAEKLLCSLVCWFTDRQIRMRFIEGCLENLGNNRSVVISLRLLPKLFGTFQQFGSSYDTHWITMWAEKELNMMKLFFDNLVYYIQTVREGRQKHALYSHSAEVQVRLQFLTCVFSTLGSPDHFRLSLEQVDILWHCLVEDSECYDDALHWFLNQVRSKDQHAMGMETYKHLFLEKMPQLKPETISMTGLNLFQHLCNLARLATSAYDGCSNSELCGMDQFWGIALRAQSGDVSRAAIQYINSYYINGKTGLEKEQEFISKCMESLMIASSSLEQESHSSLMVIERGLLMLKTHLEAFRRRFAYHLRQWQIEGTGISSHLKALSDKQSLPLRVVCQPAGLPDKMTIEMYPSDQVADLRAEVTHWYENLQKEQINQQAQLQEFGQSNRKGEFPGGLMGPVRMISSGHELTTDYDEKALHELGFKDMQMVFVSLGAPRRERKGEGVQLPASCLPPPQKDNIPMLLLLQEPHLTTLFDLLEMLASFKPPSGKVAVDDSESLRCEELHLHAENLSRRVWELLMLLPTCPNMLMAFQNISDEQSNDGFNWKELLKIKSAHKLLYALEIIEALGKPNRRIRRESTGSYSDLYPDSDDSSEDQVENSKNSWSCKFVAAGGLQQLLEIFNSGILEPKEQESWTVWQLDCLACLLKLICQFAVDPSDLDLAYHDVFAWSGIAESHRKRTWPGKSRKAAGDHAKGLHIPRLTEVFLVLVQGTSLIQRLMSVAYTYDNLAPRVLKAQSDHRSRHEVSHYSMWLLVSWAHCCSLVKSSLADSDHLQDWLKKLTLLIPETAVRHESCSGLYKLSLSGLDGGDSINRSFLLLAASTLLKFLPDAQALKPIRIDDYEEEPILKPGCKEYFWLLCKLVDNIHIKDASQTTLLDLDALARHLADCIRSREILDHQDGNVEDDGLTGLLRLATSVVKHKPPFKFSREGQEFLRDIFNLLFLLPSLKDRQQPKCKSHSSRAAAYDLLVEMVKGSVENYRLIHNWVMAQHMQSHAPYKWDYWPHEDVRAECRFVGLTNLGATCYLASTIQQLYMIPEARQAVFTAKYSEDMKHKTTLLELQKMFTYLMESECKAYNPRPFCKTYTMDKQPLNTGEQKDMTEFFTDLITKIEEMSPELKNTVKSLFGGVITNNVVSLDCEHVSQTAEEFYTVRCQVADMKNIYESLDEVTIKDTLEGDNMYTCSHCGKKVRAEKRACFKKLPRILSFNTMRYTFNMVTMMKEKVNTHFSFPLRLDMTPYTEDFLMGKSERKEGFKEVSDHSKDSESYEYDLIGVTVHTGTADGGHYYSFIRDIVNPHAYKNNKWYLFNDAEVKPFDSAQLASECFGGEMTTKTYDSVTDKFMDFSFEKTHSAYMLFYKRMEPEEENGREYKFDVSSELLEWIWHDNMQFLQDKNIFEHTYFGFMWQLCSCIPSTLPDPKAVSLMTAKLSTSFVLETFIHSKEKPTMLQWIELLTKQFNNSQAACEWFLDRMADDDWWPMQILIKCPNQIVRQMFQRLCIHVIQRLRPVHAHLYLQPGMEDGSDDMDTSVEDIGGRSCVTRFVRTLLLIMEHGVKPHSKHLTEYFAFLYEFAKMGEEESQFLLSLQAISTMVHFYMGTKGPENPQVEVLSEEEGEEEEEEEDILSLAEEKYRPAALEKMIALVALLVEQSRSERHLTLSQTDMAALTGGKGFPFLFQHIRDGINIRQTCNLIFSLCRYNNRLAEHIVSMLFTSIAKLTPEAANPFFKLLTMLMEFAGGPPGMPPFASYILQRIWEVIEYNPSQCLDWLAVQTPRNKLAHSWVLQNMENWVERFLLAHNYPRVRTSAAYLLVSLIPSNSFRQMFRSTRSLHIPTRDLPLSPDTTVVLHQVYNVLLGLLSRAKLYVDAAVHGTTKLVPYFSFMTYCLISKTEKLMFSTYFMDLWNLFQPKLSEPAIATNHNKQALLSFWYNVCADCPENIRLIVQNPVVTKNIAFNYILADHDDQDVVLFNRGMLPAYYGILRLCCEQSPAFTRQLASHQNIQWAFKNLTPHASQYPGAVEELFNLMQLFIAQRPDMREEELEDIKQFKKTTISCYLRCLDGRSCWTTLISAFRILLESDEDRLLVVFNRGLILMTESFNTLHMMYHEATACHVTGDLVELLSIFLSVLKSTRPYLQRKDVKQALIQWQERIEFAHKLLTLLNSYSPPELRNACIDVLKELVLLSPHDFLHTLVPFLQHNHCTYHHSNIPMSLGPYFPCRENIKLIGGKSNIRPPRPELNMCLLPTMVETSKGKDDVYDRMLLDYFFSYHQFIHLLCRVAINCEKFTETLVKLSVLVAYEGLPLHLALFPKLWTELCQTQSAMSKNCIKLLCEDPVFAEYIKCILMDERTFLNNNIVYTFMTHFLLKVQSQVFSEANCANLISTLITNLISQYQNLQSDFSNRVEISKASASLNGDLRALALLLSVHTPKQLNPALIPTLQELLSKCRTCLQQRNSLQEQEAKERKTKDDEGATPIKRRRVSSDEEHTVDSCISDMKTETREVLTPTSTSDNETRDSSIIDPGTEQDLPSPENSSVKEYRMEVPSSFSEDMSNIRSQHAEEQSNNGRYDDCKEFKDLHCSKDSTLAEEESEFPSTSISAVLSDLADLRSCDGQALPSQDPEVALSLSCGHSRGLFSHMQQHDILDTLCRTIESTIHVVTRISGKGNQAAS

Structure (SMILES): O=C(CCl)Nc1cc(C(F)(F)F)cc(C(F)(F)F)c1 [compound 3]
R value (DMSO/fragment) (USP34 C741 (Q70CQ2); 500 μM, invitro, ramos): 3.2
R value (DMSO/fragment) (POU2F2 C346 (P09086); in vitro, MDA-MB-231): 1.7
R value (DMSO/fragment) (POU2F2 C346 (P09086); invitro, ramos): 5.5

Structure (SMILES): COc1ccc(C2CC(c3cccs3)=NN2C(=O)CCl)cc1 (centres unmarked) [compound 4]
isoTOP-ABPP reactivity Q15013_C124 MAD2L1BP ([1]; 100 μM in situ 231): 13.0
R value (DMSO/fragment) (UBA7 C599 (P41226); 250 μM, in vitro, Ramos): 20.0

Structure (SMILES): C=CC(=O)N(c1ccccc1)c1ccc(Br)cc1 [compound 5]
isoTOP-ABPP ratio, P09086_C346 (POU2F2 C346 (P09086); invitro, ramos): 4.6

Structure (SMILES): COc1cc2c(cc1OC)CN(C(=O)CCl)CC2 [compound 8]
isoTOP-ABPP reactivity Q15013_C124 MAD2L1BP ([1]; 200 μM, insitu, 231): 5.4

Structure (SMILES): O=C(CCl)N1CCN(S(=O)(=O)c2ccccc2F)CC1 [compound 10]
isoTOP-ABPP ratio, Q70CQ2_C741 (USP34 C741 (Q70CQ2); 500 μM, invitro, ramos): 0.9

Structure (SMILES): Cn1cc(S(=O)(=O)N2CCOCC2)cc1C(=O)NC(=O)CCl [compound 11]
isoTOP-ABPP ratio, cysteine Q15013_C124 ([1]; 100 μM in situ 231): 1.0
isoTOP-ABPP ratio, P41226_C599 (UBA7 C599 (P41226); 500 μM, invitro, ramos): 1.9
isoTOP-ABPP ratio, P09086_C346 (POU2F2 C346 (P09086); invitro, ramos): 1.7

Structure (SMILES): O=C(CCl)NCCc1c[nH]c2ccccc12 [compound 13]
isoTOP-ABPP ratio, Q70CQ2_C741 (USP34 C741 (Q70CQ2); 500 μM, invitro, 231): 0.8
isoTOP-ABPP ratio, P09086_C346 (POU2F2 C346 (P09086); invitro, ramos): 0.6

Structure (SMILES): C=CC(=O)N(Cc1cccnc1)c1ccc(Oc2ccccc2)c(C(F)(F)F)c1 [compound 15]
isoTOP-ABPP ratio (reactivity profile), P09086_C346 (POU2F2 C346 (P09086); 500 μm in-vitro ramos): 0.8

Structure (SMILES): O=C(CCl)N1CCC(C(O)(c2ccccc2)c2ccccc2)CC1 [compound 20]
isoTOP-ABPP ratio (reactivity profile), P41226_C599 (UBA7 C599 (P41226); 500 μm in-vitro ramos): 12.2
isoTOP-ABPP ratio (reactivity profile), P41226_C599 (UBA7 C599 (P41226); 500 μm in-vitro ramos_231): 1.1
isoTOP-ABPP ratio (reactivity profile), Q70CQ2_C741 (USP34 C741 (Q70CQ2); 500 μm in-vitro ramos): 1.7
isoTOP-ABPP ratio (reactivity profile), Q70CQ2_C741 (USP34 C741 (Q70CQ2); 500 μm in-vitro ramos_231): 2.8
isoTOP-ABPP ratio (reactivity profile), P09086_C346 (POU2F2 C346 (P09086); 500 μm in-vitro ramos): 2.3

Structure (SMILES): O=C(CCl)NC12CC3CC(CC(C3)C1)C2 [compound 21]
isoTOP-ABPP ratio (reactivity profile), P41226_C599 (UBA7 C599 (P41226); 500 μm in-vitro ramos): 2.5
isoTOP-ABPP ratio (reactivity profile), Q70CQ2_C741 (USP34 C741 (Q70CQ2); 500 μm in-vitro ramos): 1.7
isoTOP-ABPP ratio (reactivity profile), P09086_C346 (POU2F2 C346 (P09086); 500 μm in-vitro ramos_231): 0.9

Structure (SMILES): N#C/C(=C\c1cc(C(F)(F)F)cc(C(F)(F)F)c1)C(N)=O [compound 23]
isoTOP-ABPP ratio (reactivity profile), P41226_C599 (UBA7 C599 (P41226); 500 μm in-vitro ramos): 3.2
isoTOP-ABPP ratio (reactivity profile), P09086_C346 (POU2F2 C346 (P09086); 500 μm in-vitro ramos): 1.1

More lines, now with the values ahead:

isoTOP-ABPP ratio (reactivity profile), P09086_C346 (POU2F2 C346 (P09086); 500 μm in-vitro ramos): 1.1
Structure (SMILES): CC(Br)C(=O)Nc1cc(C(F)(F)F)cc(C(F)(F)F)c1 (centres unmarked) [compound 24]

isoTOP-ABPP ratio (reactivity profile), P09086_C346 (POU2F2 C346 (P09086); 500 μm in-vitro ramos_231): 0.7
Structure (SMILES): CC(Cl)C(=O)Nc1cc(C(F)(F)F)cc(C(F)(F)F)c1 (centres unmarked) [compound 25]

isoTOP-ABPP ratio Q15013_C124 ([1]; 200 μM, insitu, 231): 1.0
isoTOP-ABPP ratio (reactivity profile), P41226_C599 (UBA7 C599 (P41226); 500 μm in-vitro ramos): 1.3
isoTOP-ABPP ratio (reactivity profile), P41226_C599 (UBA7 C599 (P41226); 500 μm in-vitro ramos_231): 0.7
Structure (SMILES): CC(C)CCOCCNC(=O)CCl [compound 27]

isoTOP-ABPP ratio Q15013_C124 ([1]; 200 μM, insitu, 231): 1.0
Structure (SMILES): COc1ccccc1OCCNC(=O)CCl [compound 28]

isoTOP-ABPP reactivity ratio, Q70CQ2_C741 (USP34 C741 (Q70CQ2); 500 μm, in-vitro_ramos_231): 4.2
isoTOP-ABPP reactivity ratio, P09086_C346 (POU2F2 C346 (P09086); 500 μm, in-vitro_ramos): 0.6
Structure (SMILES): C=CC(=O)N(Cc1cccnc1)c1cc(C(F)(F)F)cc(C(F)(F)F)c1 [compound 31]

isoTOP-ABPP reactivity ratio, P41226_C599 (UBA7 C599 (P41226); 500 μm, in-vitro_ramos): 1.2
Structure (SMILES): O=C(CCl)Nc1ccccc1C1CCCCCC1 [compound 35]

isoTOP-ABPP reactivity ratio, Q70CQ2_C741 (USP34 C741 (Q70CQ2); 500 μm, in-vitro_ramos): 1.1
Structure (SMILES): C=CC(=O)N1CCC(c2noc3ccc(F)cc23)CC1 [compound 37]

isoTOP-ABPP reactivity ratio, Q70CQ2_C741 (USP34 C741 (Q70CQ2); 500 μm, in-vitro_ramos): 4.1
Structure (SMILES): C=CC(=O)Nc1cc(F)c(N2CCN(C(=O)OC(C)(C)C)CC2)c(F)c1 [compound 38]

isoTOP-ABPP ratio Q15013_C124 ([1]; 200 μM, insitu, 231): 20.0
Structure (SMILES): CC1CCc2ccccc2N1C(=O)CCl (centres unmarked) [compound 45]

isoTOP-ABPP ratio Q15013_C124 ([1]; 200 μM, insitu, 231): 1.2
isoTOP-ABPP reactivity profile ratio, Q70CQ2_C741 (USP34 C741 (Q70CQ2); 500 μm, in-vitro_ramos): 0.9
Structure (SMILES): O=C(CCl)Nc1cccc2ncccc12 [compound 51]
